In patent US5441941A, “1,2-dihydroellipticines with activity against CNS specific cancer” (The United States of America as represented by the …, priority 1993, dated 1995):

How the values were obtained:
786-0 = experiment: cells; conditions: Homo sapiens
K-562 = experiment: NCI in vitro screen, SRB percent growth, Leukemia
MALME-3M = experiment: NCI in vitro screen, SRB percent growth, Melanoma
M14 = experiment: NCI in vitro screen, SRB percent growth, Melanoma
UACC-62 = experiment: NCI in vitro screen, SRB percent growth, Melanoma
SF-295 = experiment: NCI in vitro screen, SRB percent growth, CNS Cancer
SNB-75 = experiment: as above
U251 = experiment: as above
XF 498 = experiment: as above
HCT-116 = experiment: NCI in vitro screen, SRB percent growth, Colon Cancer
HCT-15 = experiment: as above
HT29 = experiment: as above
ACHN = experiment: NCI in vitro screen, SRB percent growth, Renal Cancer
CAKI-1 = experiment: as above
RXF-631 = experiment: as above
OVCAR-8 = experiment: NCI in vitro screen, SRB percent growth, Ovarian Cancer
[1] = 786-0, read-out: Percent Growth
[2] = Log10 Concentration -4.0, 100 µM
[3] = Log10 Concentration -7.0, 0.1 µM

Cc1ccc2[nH]c3c(C)c4c(c(C)c3c2c1)CN(C)C=C4 [Formula XI]
GI50 (786-0; 786-0): 0.523 µM | CC50 (786-0; 786-0, read-out: LC-50): 37.3 µM | activity at 0.01 µM (786-0; [1]): 102% | activity at 0.1 µM (786-0; [1]): 96% | activity at 1 µM (786-0; [1]): 32% | activity at 10 µM (786-0; [1]): 3% | activity at 100 µM (786-0; [1]): -90% | IC (TGI) (786-0; 786-0, read-out: TGI): 10.7 µM | Percent Growth (K-562; [2]): 2% | Percent Growth (K-562; Log10 Concentration -5.0): 6% | Percent Growth (K-562; Log10 Concentration -6.0, 1 µM): 53% | Percent Growth (K-562; [3]): 83% | Percent Growth (K-562; Log10 Concentration -8.0): 95% | TGI (K-562; PG=0): > 100 µM | GI50 (K-562; PG=+50): 1.17 µM | CC50 (K-562; read-out: LC-50, PG=-50): > 100 µM | Percent Growth (MALME-3M; [2]): -86% | Percent Growth (MALME-3M; Log10 Concentration -5.0): -40% | Percent Growth (MALME-3M; Log10 Concentration -6.0, 1 µM): 78% | Percent Growth (MALME-3M; [3]): 115% | Percent Growth (MALME-3M; Log10 Concentration -8.0): 113% | TGI (MALME-3M; PG=0): 4.58 µM | GI50 (MALME-3M; PG=+50): 1.72 µM | CC50 (MALME-3M; read-out: LC-50, PG=-50): 16.4 µM | Percent Growth (M14; [2]): -93% | Percent Growth (M14; Log10 Concentration -5.0): 6% | Percent Growth (M14; Log10 Concentration -6.0, 1 µM): 103% | Percent Growth (M14; [3]): 94% | Percent Growth (M14; Log10 Concentration -8.0): 106% | TGI (M14; PG=0): 11.4 µM | GI50 (M14; PG=+50): 3.52 µM | CC50 (M14; read-out: LC-50, PG=-50): 36.8 µM | Percent Growth (UACC-62; [2]): -84% | Percent Growth (UACC-62; Log10 Concentration -5.0): -91% | Percent Growth (UACC-62; Log10 Concentration -6.0, 1 µM): 92% | Percent Growth (UACC-62; [3]): 100% | Percent Growth (UACC-62; Log10 Concentration -8.0): 106% | TGI (UACC-62; PG=0): 3.18 µM | GI50 (UACC-62; PG=+50): 1.69 µM | CC50 (UACC-62; read-out: LC-50, PG=-50): 5.99 µM | Percent Growth (SF-295; [2]): -91% | Percent Growth (SF-295; Log10 Concentration -5.0): -31% | Percent Growth (SF-295; Log10 Concentration -6.0, 1 µM): 23% | Percent Growth (SF-295; [3]): 87% | Percent Growth (SF-295; Log10 Concentration -8.0): 92% | TGI (SF-295; PG=0): 2.68 µM | GI50 (SF-295; PG=+50): 0.381 µM | CC50 (SF-295; read-out: LC-50, PG=-50): 20.7 µM | Percent Growth (SNB-75; [2]): -97% | Percent Growth (SNB-75; Log10 Concentration -5.0): -72% | Percent Growth (SNB-75; Log10 Concentration -6.0, 1 µM): 20% | Percent Growth (SNB-75; [3]): 109% | Percent Growth (SNB-75; Log10 Concentration -8.0): 110% | TGI (SNB-75; PG=0): 1.66 µM | GI50 (SNB-75; PG=+50): 0.462 µM | CC50 (SNB-75; read-out: LC-50, PG=-50): 5.75 µM | Percent Growth (U251; Log10 Concentration -5.0): -72% | Percent Growth (U251; Log10 Concentration -6.0, 1 µM): 3% | Percent Growth (U251; [3]): 89% | Percent Growth (U251; Log10 Concentration -8.0): 99% | TGI (U251; PG=0): 1.1 µM | GI50 (U251; PG=+50): 0.286 µM | CC50 (U251; read-out: LC-50, PG=-50): 5.12 µM | Percent Growth (XF 498; [2]): -57% | Percent Growth (XF 498; Log10 Concentration -5.0): -33% | Percent Growth (XF 498; Log10 Concentration -6.0, 1 µM): 46% | Percent Growth (XF 498; [3]): 98% | Percent Growth (XF 498; Log10 Concentration -8.0): 101% | TGI (XF 498; PG=0): 3.84 µM | GI50 (XF 498; PG=+50): 0.851 µM | CC50 (XF 498; read-out: LC-50, PG=-50): 50.4 µM | Percent Growth (HCT-116; [2]): -81% | Percent Growth (HCT-116; Log10 Concentration -5.0): 3% | Percent Growth (HCT-116; Log10 Concentration -6.0, 1 µM): 83% | Percent Growth (HCT-116; [3]): 103% | Percent Growth (HCT-116; Log10 Concentration -8.0): 113% | TGI (HCT-116; PG=0): 10.9 µM | GI50 (HCT-116; PG=+50): 2.58 µM | CC50 (HCT-116; read-out: LC-50, PG=-50): 42.8 µM | Percent Growth (HCT-15; [2]): -87% | Percent Growth (HCT-15; Log10 Concentration -5.0): 76% | Percent Growth (HCT-15; Log10 Concentration -6.0, 1 µM): 95% | Percent Growth (HCT-15; [3]): 102% | Percent Growth (HCT-15; Log10 Concentration -8.0): 111% | TGI (HCT-15; PG=0): 29.3 µM | GI50 (HCT-15; PG=+50): 14.5 µM | CC50 (HCT-15; read-out: LC-50, PG=-50): 59.6 µM | Percent Growth (HT29; [2]): -93% | Percent Growth (HT29; Log10 Concentration -5.0): 4% | Percent Growth (HT29; Log10 Concentration -6.0, 1 µM): 82% | Percent Growth (HT29; [3]): 95% | Percent Growth (HT29; Log10 Concentration -8.0): 99% | TGI (HT29; PG=0): 11.1 µM | GI50 (HT29; PG=+50): 2.57 µM | CC50 (HT29; read-out: LC-50, PG=-50): 36 µM | Percent Growth (ACHN; [2]): -92% | Percent Growth (ACHN; Log10 Concentration -5.0): 30% | Percent Growth (ACHN; Log10 Concentration -6.0, 1 µM): 81% | Percent Growth (ACHN; [3]): 96% | Percent Growth (ACHN; Log10 Concentration -8.0): 101% | TGI (ACHN; PG=0): 17.6 µM | GI50 (ACHN; PG=+50): 4.02 µM | CC50 (ACHN; read-out: LC-50, PG=-50): 45.1 µM | Percent Growth (CAKI-1; [2]): -89% | Percent Growth (CAKI-1; Log10 Concentration -6.0, 1 µM): 56% | Percent Growth (CAKI-1; [3]): 106% | Percent Growth (CAKI-1; Log10 Concentration -8.0): 116% | TGI (CAKI-1; PG=0): 5.89 µM | GI50 (CAKI-1; PG=+50): 1.21 µM | CC50 (CAKI-1; read-out: LC-50, PG=-50): 28.8 µM | Percent Growth (RXF-631; [2]): -78% | Percent Growth (RXF-631; Log10 Concentration -5.0): -8% | Percent Growth (RXF-631; Log10 Concentration -6.0, 1 µM): 30% | Percent Growth (RXF-631; [3]): 74% | Percent Growth (RXF-631; Log10 Concentration -8.0): 95% | TGI (RXF-631; PG=0): 6.25 µM | GI50 (RXF-631; PG=+50): 0.352 µM | CC50 (RXF-631; read-out: LC-50, PG=-50): 39.5 µM | Percent Growth (OVCAR-8; [2]): -95% | Percent Growth (OVCAR-8; Log10 Concentration -5.0): -5% | Percent Growth (OVCAR-8; Log10 Concentration -6.0, 1 µM): 37% | Percent Growth (OVCAR-8; [3]): 81% | Percent Growth (OVCAR-8; Log10 Concentration -8.0): 89% | TGI (OVCAR-8; PG=0): 7.69 µM | GI50 (OVCAR-8; PG=+50): 0.516 µM | CC50 (OVCAR-8; read-out: LC-50, PG=-50): 31.8 µM
